From patent publication US20070275925A1, “ASTHMA DIAGNOSIS AND THERAPY” (REGENTS OF THE UNIVERSITY OF CALIFORNIA, priority 2006, published 2007)

Experiment: Lung function (FEV1) in the clinical trial
Type: in vivo, human
Conditions: by one week, sustained at 4 weeks and 8 weeks; inhaled fluticasone 500 μg twice daily
Method: In three cross sectional studies and a clinical trial, epithelial brushings were collected by bronchoscopy from 42 subjects with asthma, 16 current smokers without asthma, and 28 healthy controls. Cross-sectional studies comprised 2 visits, the first for characterization and the second for bronchoscopy. The clinical trial was a 10 week, randomized, double-blind, placebo-controlled trial specifically designed to determine the effects of inhaled fluticasone (500 μg twice daily) on airway gene expression and to relate gene expression changes to improvements in lung function (FIG. 1). Bronchoscopy was performed at baseline and repeated 1 week after starting study drug. Thirty-five subjects had adequate baseline bronchoscopy and 32 had RNA available from epithelial brushings at both bronchoscopies. Lung function was measured at intervals over the 8-week treatment period. […] Spirometry was measured at baseline, before both bronchoscopies, at 4 and 8 weeks after starting study medication, and after the one week run-out according to American Thoracic Society criteria using a dry rolling-seal spirometer (Model VRS2000, PDS Instrumentation, S&M Instrument Co., Doylestown, Pa.). Methacholine responsiveness was measured at baseline and at 4 and 8 weeks after starting study medication using a five-breath dosimeter method (modified from Chai et al).^5

For `CCC(=O)O[C@]1(C(=O)SCF)[C@H](C)C[C@H]2[C@@H]3C[C@H](F)C4=CC(=O)C=C[C@]4(C)[C@@]3(F)[C@@H](O)C[C@@]21C` [fluticasone, fluticasone propionate], the “Improvement in FEV1 versus placebo” value was “greater improvements in FEV1 than placebo”.
